Assay results published in patent US9718840B2, “Condensed 5-oxazolidinone derivative” (SUMITOMO DAINIPPON PHARMA CO., LTD., priority 2014, dated 2017).

Key:
Human FXIa = Human FXIa (Homo sapiens, UniProt P03951); experiment: In vitro activated factor XI (FXIa) inhibition test; format: biochemical
[1] = system: Rabbit venous thrombus models; experiment: In vivo antithrombotic effect evaluation test using rabbit (arteriovenous shunt); conditions: prompt i.v. + continuous i.v.
Method: (§1) Rabbit venous thrombus models were prepared by a modification of the report of Wong et al. (Wong P C. et al., J. Pharmacol. Exp. Ther. 292: 351-357 (2000)). Male rabbits (JW, 2 to 4 kg) were anesthetized by the inhalation of isoflurane (ISOFLU®, manufactured by DS Pharma Animal Health Co., Ltd.) (introduced anesthesia: 4%, continuous anesthesia: 1.5 to 2.5%). A tracheostomy tube was inserted to each rabbit, which was then ventilated using a respirator. For the intravenous administration of a test drug and blood collection, catheters were inserted to the right femoral vein and the right femoral artery, respectively. An arteriovenous shunt filled with saline was inserted to the carotid artery and the jugular vein. The arteriovenous shunt was prepared by connecting Atom extension tubes (4Fr) having lengths of 15 cm and 13 cm to the artery side and the vein side, respectively, of a polyethylene tube (length: 60 cm, outside diameter: 11.1 mm, inside diameter: 7.9 mm). Also, 4-0 silk thread having a length of 5 cm was indwelled in the arteriovenous shunt. Blood was sent for 30 minutes from the carotid artery to the jugular vein via the arteriovenous shunt. The shunt was removed, and the weight of the silk thread covered with thrombus was measured. The weight of the silk thread measured before the experiment was subtracted from the measured weight, and the obtained value was used as a wet thrombus weight. One hour before the open of the arteriovenous shunt, the test drug or a vehicle was promptly intravenously administered (0.67 mL/kg) and then continuously intravenously administered (1 mL/kg/hr). The continuous injection was continued throughout the experiment. Further, an existing anticoagulant dabigatran (antithrombin drug) and rivaroxaban (FXa inhibitor) were tested as control drugs.
In order to measure aPTT of blood samples as an index for the intrinsic coagulation pathway, blood was collected before administration and immediately before cessation of blood flow, and plasma was prepared using 3.2% sodium citrate. After incubation at 37° C. for 6 minutes, an STA reagent Cephascreen (for aPTT assay; manufactured by Roche Diagnostics K.K.) was added in an amount equal thereto, and the mixture was further incubated for 4 minutes. STA calcium chloride (manufactured by Roche Diagnostics K.K.) was added in an amount equal thereto, and the time required for coagulation was measured.
In order to measure prothrombin time (PT) of blood samples as an index for the extrinsic coagulation pathway, blood was collected before administration and immediately before cessation of blood flow, and plasma was prepared using 3.2% sodium citrate. After incubation at 37° C. for 10 minutes, Neoplastin Plus (for PT assay; manufactured by Roche Diagnostics K.K.) was added in a double amount, and the time required for coagulation was measured.

[2] = system: Rabbit nail bleeding models; experiment: Bleeding time evaluation test using rabbit nail bleeding model; format: in vivo; conditions: for Bleeding time: Experiment 1 (maximum 30 minutes), rabbit; for Bleeding time (fold-increase): Experiment 1, ratio to vehicle group average
Method: Rabbit nail bleeding models were prepared by a modification of the report of Wong et al. (Wong P C. et al., J. Thromb. Haemost. 7: 1313-1320 (2009)). Male rabbits (JW, 1.5 to 3.5 kg) were anesthetized by the inhalation of isoflurane (ISOFLU®, manufactured by DS Pharma Animal Health Co., Ltd.) (introduced anesthesia: 4%, continuous anesthesia: 2 to 3%).
(§2) For the intravenous administration of a test drug or a vehicle, an indwelling needle was inserted to the auricular vein, and the test drug or the vehicle was promptly intravenously administered (0.67 mL/kg) and then continuously intravenously administered (1 mL/kg/hr). One hour after the start of administration, three posterior toenails were cut and dipped in saline heated to approximately 37° C., and the bleeding time was measured. The bleeding time was defined as a time from the cutting to the arrest of bleeding, and an average value from the three nails was used. The measurement time was 30 minutes at the maximum for experiment 1 and 60 minutes at the maximum for experiment 2. In each experiment, if bleeding for 30 minutes or 60 minutes or longer was confirmed, the bleeding time was regarded as 30 minutes or 60 minutes.

[3] = system: Rabbit venous thrombus models; experiment: Effect of combined use with antiplatelet drug using rabbit AVST model; format: in vivo; conditions: alone
Method: as §1, with “Male rabbits (JW, 2 to 4 kg) were anesthetized by the inhalation of isoflurane (ISOFLU®, manufactured by DS Pharma Animal Health Co., Ltd.) (introduced anesthesia: 4%, continuous anesthesia: 1.5 to 2.5%).” left out, “The arteriovenous shunt was prepared by connecting Atom extension tubes (4Fr) having lengths of 15 cm and 13 cm to the artery side and the vein side, respectively, of a polyethylene tube (length: 60 cm, outside diameter: 11.1 mm, inside diameter: 7.9 mm).” left out, “[…] STA calcium chloride (manufactured by Roche Diagnostics K.K.) was added in” for “Further,”, “amount equal thereto,” for “existing anticoagulant dabigatran (antithrombin drug)”, “the time required for coagulation was measured.” for “rivaroxaban (FXa inhibitor) were tested as control drugs.”

[4] = system: Rabbit nail bleeding models; experiment: Effect of combined use with antiplatelet drug using rabbit nail bleeding model; format: in vivo; conditions: alone; for Bleeding time: rabbit, maximum 60 minutes; for Bleeding time (fold-increase): ratio to vehicle group average
Method: as §2, with “Rabbit nail bleeding models were prepared by a modification of the report of Wong et al. (Wong P C. et al., J. Thromb. Haemost. 7: 1313-1320 (2009)). Male rabbits (JW, 1.5 to 3.5 kg) were anesthetized by the inhalation of isoflurane (ISOFLU®, manufactured by DS Pharma Animal Health Co., Ltd.) (introduced anesthesia: 4%, continuous anesthesia: 2 to 3%). For” for “For”, “was” for “was 30 minutes at the maximum for experiment 1 and”, “maximum. If” for “maximum for experiment 2. In each experiment, if”, “for” for “for 30 minutes or”, “as” for “as 30 minutes or”

[5] = dose 0.03 + 0.045 mg/kg + mg/kg/h
[6] = dose 0.1 + 0.15 mg/kg + mg/kg/h
[7] = dose 0.3 + 0.45 mg/kg + mg/kg/h
[8] = dose 0.03 + 0.045 mg/kg + mg/kg/h i.v.
[9] = dose 0.1 + 0.15 mg/kg + mg/kg/h i.v.
[10] = dose 0.3 + 0.45 mg/kg + mg/kg/h i.v.

Human FXIa, sequence (P03951 388-625 limits assumed): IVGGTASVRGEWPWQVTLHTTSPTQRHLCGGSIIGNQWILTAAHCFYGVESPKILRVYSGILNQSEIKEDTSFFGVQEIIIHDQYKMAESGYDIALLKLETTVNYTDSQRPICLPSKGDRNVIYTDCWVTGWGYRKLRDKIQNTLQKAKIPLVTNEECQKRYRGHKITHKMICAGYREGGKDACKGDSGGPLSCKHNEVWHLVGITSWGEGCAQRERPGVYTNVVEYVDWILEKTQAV
Human FXIa, sequence (P03951 19-387 partner limits assumed): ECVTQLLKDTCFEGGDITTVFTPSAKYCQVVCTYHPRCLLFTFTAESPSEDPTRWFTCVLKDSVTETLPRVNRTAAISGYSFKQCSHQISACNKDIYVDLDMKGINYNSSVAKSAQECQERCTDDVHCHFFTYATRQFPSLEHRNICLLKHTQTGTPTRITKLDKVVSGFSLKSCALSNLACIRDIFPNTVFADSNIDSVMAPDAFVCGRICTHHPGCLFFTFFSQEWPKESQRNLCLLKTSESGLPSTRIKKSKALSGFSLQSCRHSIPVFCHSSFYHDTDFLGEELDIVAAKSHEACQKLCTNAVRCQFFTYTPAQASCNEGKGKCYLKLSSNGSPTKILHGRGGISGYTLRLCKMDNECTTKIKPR

## N[C@H](CF)[C@H]1CC[C@H](C(=O)N2CC[C@@H](C3CCCCC3)[C@H]2C(=O)Nc2ccc3[nH]c(C(=O)O)nc3c2)CC1
Human FXIa
  IC50: 34 nM

## N[C@H](CF)[C@H]1CC[C@H](C(=O)N2CC[C@@H](c3ccccc3)[C@H]2C(=O)Nc2ccc3[nH]c(C(=O)O)cc3c2)CC1
Human FXIa
  IC50: 15 nM

## N[C@H](CF)[C@H]1CC[C@H](C(=O)N2CC[C@H](c3ccccc3)[C@H]2C(=O)Nc2ccc3[nH]c(C(=O)O)cc3c2)CC1
Human FXIa
  IC50: 20 nM

## O=C(NC[C@H]1CN(c2ccc(N3CCOCC3=O)cc2)C(=O)O1)c1ccc(Cl)s1 [Rivaroxaban]
[1]; [5]
  PT (ratio): 1.23 ± 0.05 ratio
  Thrombus weight: 92 ± 19 mg
  aPTT (ratio): 1.22 ± 0.06 ratio
[1]; [6]
  PT (ratio): 1.73 ± 0.15 ratio
  Thrombus weight: 58 ± 9 mg
  aPTT (ratio): 1.50 ± 0.09 ratio
[1]; [7]
  PT (ratio): 2.87 ± 0.33 ratio
  Thrombus weight: 29 ± 10 mg
  aPTT (ratio): 1.87 ± 0.14 ratio
[2]; [8]
  Bleeding time: 1031 ± 319 s
  Bleeding time (fold-increase): 2.3 ± 0.7 fold-increase
[2]; [9]
  Bleeding time: 1369 ± 334 s
  Bleeding time (fold-increase): 3.0 ± 0.7 fold-increase
[2]; [10]
  Bleeding time: 1733 ± 110 s
  Bleeding time (fold-increase): 3.8 ± 0.2 fold-increase
[3]; [8]
  PT (ratio): 1.23 ± 0.05 ratio
  Thrombus weight: 92 ± 19 mg
  aPTT (ratio): 1.22 ± 0.06 ratio
[3]; [9]
  PT (ratio): 1.73 ± 0.15 ratio
  Thrombus weight: 58 ± 9 mg
  aPTT (ratio): 1.50 ± 0.09 ratio
[4]; [8]
  Bleeding time: 1614 ± 869 s
  Bleeding time (fold-increase): 2.8 ± 1.5 fold-increase
[4]; [9]
  Bleeding time: 2445 ± 964 s
  Bleeding time (fold-increase): 4.2 ± 1.7 fold-increase
